{"source": "patent US20110251286A1", "about": "“Crystalline salts and/or co-crystals of O-desmethyltramadol” (GRUENENTHAL GmbH, priority 2010, published 2011)", "key": {"[1]": {"experiment": "Release in artificial intestinal juice", "format": "physicochemical", "experimental": "Investigations on release were carried out in a Sotax AT7 smart release apparatus with UV measurement (Perkin Elmer photometer).\nA vessel with Wood apparatus was used (for intrinsic release).\nA pressing of 0.5 cm^2 surface area (diameter 8 mm) was produced with a force of 200 N using approximately 100 mg of active ingredient.\nRelease was carried out in a release medium, which is composed as described below: • Intestinal juice without pancreas powder, pH 6.8 (analogous to Ph. Eur.); 250.0 ml 6.8 g of potassium dihydrogenphosphate R+0.896 g of NaOH+water to 1000.0 ml.\nRelease was carried out in a release volume of in each case 500±5 ml at a temperature of the release medium of 37±1° C. with a stirring speed of 100±5 rpm.\nThe content determination was carried out by means of spectroscopic methods (UV spectroscopy, wavelength: 271 nm, cuvette: 10 mm). Sample taking was carried out manually.\nIn this release experiment, the individual compounds were placed in a permeable bag in an amount in each case calculated on 100 mg of the free base.\nThe results, expressed in percent of the substance released, are reproduced in the following tables. In this case, the compounds denote: HCl: hydrochloride; A: cinnamate; B: palmitate; C: decanoate; E: hemi-fumarate and F: hemi-sebacate."}, "[2]": {"experiment": "Determination of equilibrium solubilities in aqueous solutions at various pHs", "details": "thermodynamic from solid", "experimental": "The equilibrium solubilities of the compounds investigated were determined in aqueous solutions at various pHs and the pH-dependent solubility profile and the solubilities at different pHs were compared here. In this case, the content determination was carried out by means of capillary electrophoresis."}, "[3]": {"experiment": "Dynamic vapor sorption (DVS): sorption and desorption of moisture", "format": "physicochemical", "experimental": "Investigations on the sorption and desorption of moisture (dynamic vapor sorption, DVS): DVS measurements were carried out on an apparatus of the type DVS 1000 from Porotec. The evaluation of the measurements was carried out using software from Surface Measurement Systems. At a temperature between 23° C. and 26° C., starting from a relative humidity of 50%, within 240 minutes the relative humidity first increased to 90% and then fell to 0%. This cycle was repeated a second time. The DVS charts shown are isothermal recordings (plots) of the change in the mass in % (change in mass—dry) as a function of the desired relative humidity in % (target RH). Correspondingly, the axes of the graphs are marked by ΔM [%] and RH [%]. The measurement curves of the first sorption are designated by 1-S, the subsequent first desorption by 1-D, the second sorption by 2-S and the second desorption by 2-D. Advantageously, mass changes between the sorption and desorption phase are as low as possible."}}, "data": [{"compound": "CN(C)C[C@H]1CCCC[C@]1(O)c1cccc(O)c1.Cl", "note": "[hydrochloride, (+)-(1R,2R)-3-[2-(dimethylamino)methyl-1-hydroxycyclohexyl]phenol hydrochloride]", "values": [{"measurement": "substance passed into the artificial intestinal fluid", "setting": "[1]; after two to 4 minutes, artificial intestinal juice pH 6.8, 37 °C", "result": "~100", "unit": "%"}, {"measurement": "solubility thermodynamic", "setting": "[2]; aqueous with cosolvent or surfactant or cyclodextrin", "result": 1090, "unit": "mM"}, {"measurement": "solubility thermodynamic", "setting": "[2]; pH 1.4, simulated gastric fluid", "result": 582, "unit": "mM"}, {"measurement": "solubility thermodynamic", "setting": "[2]; pH 4.3, aqueous buffer", "result": 666, "unit": "mM"}, {"measurement": "solubility thermodynamic", "setting": "[2]; pH 6.8, aqueous buffer", "result": 698, "unit": "mM"}, {"measurement": "solubility thermodynamic", "setting": "[2]; pH 7.4, aqueous buffer", "result": 867, "unit": "mM"}, {"measurement": "solubility thermodynamic", "setting": "[2]; pH 11, aqueous buffer", "result": 979, "unit": "mM"}, {"measurement": "solubility thermodynamic", "setting": "[2]; water", "result": 983, "unit": "mM"}]}, {"compound": "palmitate", "values": [{"measurement": "release behaviour in artificial intestinal juice", "setting": "[1]; Experiments B-1 and B-2", "result": "more intensely prolonged release"}, {"measurement": "release rate compared to the hydrochloride salt", "setting": "[1]; in artificial intestinal juice", "result": "decreased release rates compared to the hydrochloride salt"}, {"measurement": "ΔM Desorption", "setting": "[3]; 1st cycle, RH 0.0 %", "result": 0.0000, "unit": "%"}, {"measurement": "ΔM Desorption", "setting": "[3]; 1st cycle, RH 10.0 %", "result": 0.0083, "unit": "%"}, {"measurement": "ΔM Desorption", "setting": "[3]; 1st cycle, RH 20.0 %", "result": 0.0148, "unit": "%"}, {"measurement": "ΔM Desorption", "setting": "[3]; 1st cycle, RH 30.0 %", "result": 0.0234, "unit": "%"}, {"measurement": "ΔM Desorption", "setting": "[3]; 1st cycle, RH 40.0 %", "result": 0.0353, "unit": "%"}, {"measurement": "ΔM Desorption", "setting": "[3]; 1st cycle, RH 50.0 %", "result": 0.0472, "unit": "%"}, {"measurement": "ΔM Hysteresis", "setting": "[3]; 1st cycle, RH 50.0 %", "result": 0.0027, "unit": "%"}, {"measurement": "ΔM Sorption", "setting": "[3]; 1st cycle, RH 50.0 %", "result": 0.0445, "unit": "%"}, {"measurement": "ΔM Desorption", "setting": "[3]; 1st cycle, RH 60.0 %", "result": 0.0896, "unit": "%"}, {"measurement": "ΔM Hysteresis", "setting": "[3]; 1st cycle, RH 60.0 %", "result": 0.0374, "unit": "%"}, {"measurement": "ΔM Sorption", "setting": "[3]; 1st cycle, RH 60.0 %", "result": 0.0522, "unit": "%"}, {"measurement": "ΔM Desorption", "setting": "[3]; 1st cycle, RH 70.0 %", "result": 0.1139, "unit": "%"}, {"measurement": "ΔM Hysteresis", "setting": "[3]; 1st cycle, RH 70.0 %", "result": 0.0412, "unit": "%"}, {"measurement": "ΔM Sorption", "setting": "[3]; 1st cycle, RH 70.0 %", "result": 0.0727, "unit": "%"}, {"measurement": "ΔM Desorption", "setting": "[3]; 1st cycle, RH 80.0 %", "result": 0.1406, "unit": "%"}, {"measurement": "ΔM Hysteresis", "setting": "[3]; 1st cycle, RH 80.0 %", "result": 0.0347, "unit": "%"}, {"measurement": "ΔM Sorption", "setting": "[3]; 1st cycle, RH 80.0 %", "result": 0.1059, "unit": "%"}, {"measurement": "ΔM Desorption", "setting": "[3]; 1st cycle, RH 90.0 %", "result": 0.1531, "unit": "%"}, {"measurement": "ΔM Sorption", "setting": "[3]; 1st cycle, RH 90.0 %", "result": 0.1531, "unit": "%"}, {"measurement": "ΔM Desorption", "setting": "[3]; 2nd cycle, RH 0.0 %", "result": 0.0172, "unit": "%"}, {"measurement": "ΔM Sorption", "setting": "[3]; 2nd cycle, RH 0.0 %", "result": 0.0000, "unit": "%"}, {"measurement": "ΔM Desorption", "setting": "[3]; 2nd cycle, RH 10.0 %", "result": 0.0303, "unit": "%"}, {"measurement": "ΔM Hysteresis", "setting": "[3]; 2nd cycle, RH 10.0 %", "result": 0.0202, "unit": "%"}, {"measurement": "ΔM Sorption", "setting": "[3]; 2nd cycle, RH 10.0 %", "result": 0.0101, "unit": "%"}, {"measurement": "ΔM Desorption", "setting": "[3]; 2nd cycle, RH 20.0 %", "result": 0.0421, "unit": "%"}, {"measurement": "ΔM Hysteresis", "setting": "[3]; 2nd cycle, RH 20.0 %", "result": 0.0211, "unit": "%"}, {"measurement": "ΔM Sorption", "setting": "[3]; 2nd cycle, RH 20.0 %", "result": 0.0211, "unit": "%"}, {"measurement": "ΔM Desorption", "setting": "[3]; 2nd cycle, RH 30.0 %", "result": 0.0552, "unit": "%"}, {"measurement": "ΔM Hysteresis", "setting": "[3]; 2nd cycle, RH 30.0 %", "result": 0.0225, "unit": "%"}, {"measurement": "ΔM Sorption", "setting": "[3]; 2nd cycle, RH 30.0 %", "result": 0.0326, "unit": "%"}, {"measurement": "ΔM Desorption", "setting": "[3]; 2nd cycle, RH 40.0 %", "result": 0.0679, "unit": "%"}, {"measurement": "ΔM Hysteresis", "setting": "[3]; 2nd cycle, RH 40.0 %", "result": 0.0237, "unit": "%"}, {"measurement": "ΔM Sorption", "setting": "[3]; 2nd cycle, RH 40.0 %", "result": 0.0442, "unit": "%"}, {"measurement": "ΔM Desorption", "setting": "[3]; 2nd cycle, RH 50.0 %", "result": 0.0837, "unit": "%"}, {"measurement": "ΔM Hysteresis", "setting": "[3]; 2nd cycle, RH 50.0 %", "result": 0.0234, "unit": "%"}, {"measurement": "ΔM Sorption", "setting": "[3]; 2nd cycle, RH 50.0 %", "result": 0.0602, "unit": "%"}, {"measurement": "ΔM Desorption", "setting": "[3]; 2nd cycle, RH 60.0 %", "result": 0.1344, "unit": "%"}, {"measurement": "ΔM Hysteresis", "setting": "[3]; 2nd cycle, RH 60.0 %", "result": 0.0573, "unit": "%"}, {"measurement": "ΔM Sorption", "setting": "[3]; 2nd cycle, RH 60.0 %", "result": 0.0771, "unit": "%"}, {"measurement": "ΔM Desorption", "setting": "[3]; 2nd cycle, RH 70.0 %", "result": 0.1640, "unit": "%"}, {"measurement": "ΔM Hysteresis", "setting": "[3]; 2nd cycle, RH 70.0 %", "result": 0.0739, "unit": "%"}, {"measurement": "ΔM Sorption", "setting": "[3]; 2nd cycle, RH 70.0 %", "result": 0.0902, "unit": "%"}, {"measurement": "ΔM Desorption", "setting": "[3]; 2nd cycle, RH 80.0 %", "result": 0.1827, "unit": "%"}, {"measurement": "ΔM Hysteresis", "setting": "[3]; 2nd cycle, RH 80.0 %", "result": 0.0495, "unit": "%"}, {"measurement": "ΔM Sorption", "setting": "[3]; 2nd cycle, RH 80.0 %", "result": 0.1332, "unit": "%"}, {"measurement": "ΔM Desorption", "setting": "[3]; 2nd cycle, RH 90.0 %", "result": 0.1771, "unit": "%"}, {"measurement": "ΔM Sorption", "setting": "[3]; 2nd cycle, RH 90.0 %", "result": 0.1771, "unit": "%"}, {"measurement": "ΔM Sorption", "setting": "[3]; 3rd cycle, RH 0.0 %", "result": 0.0172, "unit": "%"}, {"measurement": "ΔM Sorption", "setting": "[3]; 3rd cycle, RH 10.0 %", "result": 0.0231, "unit": "%"}, {"measurement": "ΔM Sorption", "setting": "[3]; 3rd cycle, RH 20.0 %", "result": 0.0306, "unit": "%"}, {"measurement": "ΔM Sorption", "setting": "[3]; 3rd cycle, RH 30.0 %", "result": 0.0392, "unit": "%"}, {"measurement": "ΔM Sorption", "setting": "[3]; 3rd cycle, RH 40.0 %", "result": 0.0498, "unit": "%"}, {"measurement": "ΔM Sorption", "setting": "[3]; 3rd cycle, RH 50.0 %", "result": 0.0650, "unit": "%"}]}]}
